Experimental data as given in patent publication US20140121273A1, “METHOD FOR TREATMENT OF MAGNESIUM AND POTASSIUM DEFICIENCIES” (priority 2005, published 2014).
Like-named read-outs stand apart in the source and are kept apart here.

Key:
[1] = test system: people taking dofetilide or sotalol therapy; experiment: 12-lead electrocardiogram intervals, randomized, double blind, placebo-controlled study of oral magnesium L-lactate; type: in vivo, human; settings: for QTc Interval 3 Hour / QTc Interval 51 Hour / QTc Baseline: Bazett's formula; for QTc interval reduction: all magnesium-treated patients on sotalol or dofetilide; for QT interval reduction: magnesium therapy
Method: (§1) A randomized, double blind, placebo-controlled study was performed at Hartford Hospital. People taking dofetilide or sotalol therapy for at least 5 half-lives were eligible for inclusion. […] After enrollment, people who discontinued their sotalol or dofetilide or altered their dosage of these drugs were excluded as well. Thirty-four participants were enrolled in the study. Three were subsequently excluded because the antiarrhythmics they were using were discontinued or the dose of the antiarrhythmics changed during the study. Given the known baseline differences in QTc intervals among men and women, each gender was randomized separately using stratified allocation. Patients completing the study (n=30) were well matched for baseline characteristics, which are reflected in Table 1. Intracellular concentrations of essential elements were available for 19 subjects. Overall 63.2% of patients (regardless of experimental group) had baseline intracellular magnesium concentrations below the normal reference range of 33.9-41.9 mEq/IU with an average level of 32.6±2.2 mEq/IU. All of the other baseline intracellular elements evaluated (phosphorus, chloride, calcium, potassium, and sodium) were within the reference range although the phosphorus was at the top of the range (average=16.7±2.8 mEq/IU with reference range of 14.2-17.0 mEq/IU).
(§2) Participants received three tablets of magnesium L-lactate (Mag-Tab SR®; Niche Pharmaceuticals; Roanoke, Tex.) or matching placebo twice daily (504 mg of elemental magnesium daily) for 48 hours (i.e. t=0, 12 h, 24 h, 36 h, and 48 h). A 12-lead electrocardiogram (ECG) was recorded at 25 mm/sec at rest prior to initiation of treatment (i.e. baseline) and at 3 and 51 hours after the first dose of magnesium (i.e. t=3 h and t=51 h) for each participant. A single blinded investigator read all ECGs using a precision ruler of 0.5 mm scale (Schlaedler-Quinzel, Inc. Parsippany, N.J.).
QT intervals were measured from the onset of the Q wave (or R/S wave if there was no Q wave) to the end of the T wave where it merges with the isoelectric baseline. The beginning and end of the QRS complex were determined by visual inspection, whereas the end of the T-wave was obtained by extrapolating the descending slope of the T-wave to the isoelectric baseline. When au wave interrupts the down sloping of the T-wave, the visible portion of the T wave was extrapolated to the T-P baseline to define the end of the T-wave. The R-R interval was measured from the peak of one R wave to the peak of an adjacent R wave. The QTc interval was corrected for heart rate using Bazett's formula [QTc=QT/(RR)^1/2].
(§3) Continuous data was expressed by a mean±SD. A p value less than 0.05 was considered statistically significant. The primary analysis was the intergroup comparisons of the change in QTc interval from baseline at 3 hours and 51 hours using Bazett's formula. Evaluations of the QRS, QT, and RR intervals were compared between groups at each time period as well. Mann-Whitney tests were used for all statistical analyses of continuous ECG data. Intracellular element intragroup comparisons were performed with a paired t-test. Chi^2 or Fischer's Exact tests were used for categorical comparisons. Statistical analysis was performed using SPSS version 5.

[2] = Intracellular elemental concentrations in sublingual buccal smears (EXAtest, energy-dispersive X-ray analysis), same study; type: in vivo, human; settings: for Intracellular magnesium concentration, Baseline: before study therapy; for Intracellular magnesium concentration, Baseline / Intracellular magnesium concentration, Post-Dosing: buccal cells, magnesium group n = 10, normal reference range 33.9-41.9, mean ± SD; for Intracellular magnesium concentration, Post-Dosing: following the third dose
Method: as §1, §2
Sublingual buccal smears were obtained from a subgroup of participants prior to initiation of study therapy and following the third dose of magnesium using EXAtest™ kits (Intracellular Diagnostics, Inc.; Foster City, Calif.). Samples were analyzed by energy-dispersive X-ray Analysis for intracellular concentrations of magnesium, phosphorus, chloride, calcium, potassium, and sodium. The use of buccal cell smears for intracellular magnesium was performed because it is noninvasive, reproducible, and correlates well (r=0.68, p<0.002) with atrial cell intracellular magnesium.
as §3

[3] = Adverse events in the placebo-controlled study; type: in vivo, human; settings: among the 34 patients in the study; one withdrew (diarrhea 30 minutes after dosing)
Method: as §1, with “Patients completing the study (n=30) were well matched for baseline characteristics, which are reflected in Table 1. Intracellular concentrations of essential elements were available for 19 subjects. Overall 63.2% of patients (regardless of experimental group) had baseline intracellular magnesium concentrations below the normal reference range of 33.9-41.9 mEq/IU with an average level of 32.6±2.2 mEq/IU.” left out
as §2, with “A single blinded investigator read all ECGs using a precision ruler of 0.5 mm scale (Schlaedler-Quinzel, Inc. Parsippany, N.J.).” left out

[4] = oral magnesium salts currently used to treat magnesium deficiencies; cited from earlier work
[5] = test system: patients with atrial fibrillation; settings: oral, two 6-month studies; cited from earlier work
[6] = cited from earlier work
[7] = 3 hours after first dose, 504 mg elemental magnesium daily, oral, n = 14, mean ± SD
[8] = 51 hours after first dose, 504 mg elemental magnesium daily for 48 hours, oral, n = 14, mean ± SD
[9] = baseline, before first dose, magnesium group n = 14, on sotalol or dofetilide, mean ± SD

C[C@H](O)C(=O)[O-].C[C@H](O)C(=O)[O-].[Mg+2] [magnesium L-lactate]
QT Interval 3 Hour [1, 7]: 115300 ± 11100 µM·h
RR Interval 3 Hour [1, 7]: 230400 ± 30860 µM·h
QTc Interval 3 Hour [1, 7]: 121100 ± 17700 µM·h
QTc Interval 3 Hour ([1]; 3 hours after first dose, 504 mg elemental magnesium daily, oral, n = 14, mean ± SD, listed as Magnesium): 121100 ± 17700 µM·h
QRS Interval 3 Hour ([1]; 3 hours after first dose, three tablets twice daily (504 mg elemental magnesium daily), oral, n = 14, mean ± SD): 39890 ± 11600 µM·h
QTc interval reduction ([1]; 3 hours post-dosing): 37 ms
QTc interval reduction from baseline ([1]; 3 hours, group receiving diuretics, mean ± SD): 51.1 ± 42 ms
QT interval reduction ([1]; 3 hours): isms
QTc interval reduction from baseline ([1]; 3 hours, no diuretic group, mean ± SD): 25.5 ± 27.9 ms
QT Interval 51 Hour [1, 8]: 115800 ± 12400 µM·h
RR Interval 51 Hour [1, 8]: 241200 ± 32670 µM·h
QTc Interval 51 Hour [1, 8]: 124800 ± 14300 µM·h
QTc Interval 51 Hour ([1]; 51 hours after first dose, 504 mg elemental magnesium daily for 48 hours, oral, n = 14, mean ± SD, listed as Magnesium): 124800 ± 14300 µM·h
QRS Interval 51 Hour ([1]; 51 hours after first dose, three tablets twice daily for 48 hours (504 mg elemental magnesium daily), oral, n = 14, mean ± SD): 36190 ± 12200 µM·h
QTc interval reduction ([1]; 51 hours): 25 ms
QTc interval reduction from baseline ([1]; 51 hours, group receiving diuretics, mean ± SD): 24.7 ± 24.3 ms
QT interval reduction ([1]; 51 hours): 14 ms
QTc interval reduction from baseline ([1]; 51 hours, no diuretic group, mean ± SD): 26.2 ± 27.4 ms
QTc Baseline [1, 9]: 131200 ± 15000 µM·h
QTc Baseline ([1]; baseline, before first dose, magnesium group n = 14, on sotalol or dofetilide, mean ± SD, listed as Magnesium): 131200 ± 15000 µM·h
QT Interval Baseline [1, 9]: 119600 ± 10600 µM·h
RR Interval Baseline [1, 9]: 235600 ± 45530 µM·h
intracellular magnesium of patients with baseline concentrations below the normal reference range, after magnesium supplementation ([2]; all such patients, normal reference range 33.9-41.9 mEq/IU): achieving a concentration within the normal reference range
Intracellular magnesium concentration, Baseline [2]: 32.6±2.2 mEq/IU
Intracellular magnesium concentration, Baseline ([2]; listed as Magnesium): 32.2 ± 2.2 mEq/IU
Intracellular magnesium concentration, Post-Dosing [2]: 36.2±2.4 mEq/IU
Intracellular magnesium concentration, Post-Dosing ([2]; listed as Magnesium): 36.2 ± 2.4 mEq/IU
effective in repleting intracellular magnesium levels to normal ranges ([2]; normal range defined as a minimum concentration of 33.9 mEq/IU): 100%
patients who experienced loose bowel movements [3]: 2 patients

[Cl-].[Cl-].[Mg+2] [magnesium chloride]
bioavailability [4]: about 20%

[Mg+2].[OH-].[OH-] [magnesium hydroxide]
maintaining sinus rhythm [5]: ineffective at maintaining sinus rhythm

[O]=[Mg] [magnesium oxide]
bioavailability [4]: about 2%

O=S(=O)([O-])[O-].[Mg+2] [magnesium sulfate]
conversion rate ([6]; trial of intravenous magnesium sulfate versus diltiazem, p=0.03): 57%
conversion rate ([6]; trial of intravenous magnesium sulfate versus verapamil, p=0.01): 58%

magnesium gluconate
bioavailability [4]: about 20%
